Earlier results in publication PMC3035168 (Chemistry & biology, 2010).
Residues, ends and D or L forms follow the SMILES beside them. *: point of attachment. Cbz = O=C(OCc1ccccc1)*; CH2F = FC*

Legend:
[1] = mouse, in vivo
[2] = tested on: HD transgenic mouse models; conditions: ref Chen et al., 2000
[3] = tested on: striatal neurons; conditions: ref Schulz et al., 1998

C[C@H](NC(=O)C(=O)Nc1ccccc1C(C)(C)C)C(=O)N[C@@H](CC(=O)O)C(=O)COc1c(F)c(F)cc(F)c1F [IDN-6556]
toxicity [1]: nontoxic

CN(C)c1ccc(O)c2c1C[C@H]1C[C@H]3[C@H](N(C)C)C(O)=C(C(N)=O)C(=O)[C@@]3(O)C(O)=C1C2=O [minocycline]
effect on cell death ([2]; HD transgenic mouse models): delays cell death
effect on caspase-1 and caspase-3 transcription ([2]; through indirect means): inhibits caspase-1 and caspase-3 transcriptional upregulation

COC(=O)C[C@H](NC(=O)[C@H](C)NC(=O)[C@@H](NC(=O)OCc1ccccc1)C(C)C)C(=O)CF [zVAD-fmk] (Cbz-Val-Ala-Asp(OMe)-CH2F)
protection against malonate-induced excitoxicity [3]: protected striatal neurons
